# Measurements published in PubChem BioAssay AID1963850 (Molecular Pharmacology Branch, DTP, NCI, 2024).
# Tested on: 192522-019-R-J2-PDC complex tumor spheroid viability
# Test: Anticancer human tumor 192522-019-R-J2-PDC patient-derived colon adenocarcinoma cell line growth inhibition [POLQ]
# Settings: for IC50: curve of first compound; for viability, T/C: stronger effect = lower value
# Summary of the method: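 Patient-derived tumour cells were co-cultured with HUVEC and mesenchymal stem cells as multicellular spheroids at 37 °C. They were treated with POLQ inhibitors (novobiocin, ART-558, RP6685) alone or combined with other agents. Top concentrations were at or near clinical Cmax (otherwise 10 microM; SN-38 at 1 microM), decreasing in half-log steps.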
# [1] = second compound 0.0316 µM, first compound 0.0316 µM
# [2] = second compound 0.0316 µM, first compound 0.1 µM
# [3] = second compound 0.0316 µM, first compound 0.316 µM
# [4] = second compound 0.0316 µM, first compound 1 µM
# [5] = second compound 0.0316 µM, first compound 3.16 µM
# [6] = second compound 0.0316 µM, first compound 10 µM
# [7] = second compound 0.1 µM, first compound 0.0316 µM
# [8] = second compound 0.1 µM, first compound 0.1 µM
# [9] = second compound 0.1 µM, first compound 0.316 µM
# [10] = second compound 0.1 µM, first compound 1 µM
# [11] = second compound 0.1 µM, first compound 3.16 µM
# [12] = second compound 0.1 µM, first compound 10 µM
# [13] = second compound 0.316 µM, first compound 0.0316 µM
# [14] = second compound 0.316 µM, first compound 0.1 µM
# [15] = second compound 0.316 µM, first compound 0.316 µM
# [16] = second compound 0.316 µM, first compound 1 µM
# [17] = second compound 0.316 µM, first compound 3.16 µM
# [18] = second compound 0.316 µM, first compound 10 µM
# [19] = second compound 1 µM, first compound 0.0316 µM
# [20] = second compound 1 µM, first compound 0.1 µM
# [21] = second compound 1 µM, first compound 0.316 µM
# [22] = second compound 1 µM, first compound 1 µM
# [23] = second compound 1 µM, first compound 3.16 µM
# [24] = second compound 1 µM, first compound 10 µM
# [25] = second compound 3.16 µM, first compound 0.0316 µM
# [26] = second compound 3.16 µM, first compound 0.1 µM
# [27] = second compound 3.16 µM, first compound 0.316 µM
# [28] = second compound 3.16 µM, first compound 1 µM
# [29] = second compound 3.16 µM, first compound 3.16 µM
# [30] = second compound 3.16 µM, first compound 10 µM
# [31] = second compound 10 µM, first compound 0.0316 µM
# [32] = second compound 10 µM, first compound 0.1 µM
# [33] = second compound 10 µM, first compound 0.316 µM
# [34] = second compound 10 µM, first compound 1 µM
# [35] = second compound 10 µM, first compound 3.16 µM
# [36] = second compound 10 µM, first compound 10 µM
# 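Also: spheroids exposed to drugs for seven days before reading.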
# 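For viability, T/C in this document: 100% = DMSO vehicle control viability in luminescence.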
smiles,measurement,setting,value
CCc1cc2c(N3CCc4c(cc(Cn5ccnc5)cc4-c4cn(C)nc4C(F)(F)F)C3=O)ccnc2c(OC)n1 + Cc1cccc(N(C)C(=O)C2C(O)CCN2c2nc(C)cc(C(F)(F)F)c2C#N)c1,IC50,second compound 0.0316 µM,> 10 µM
same,IC50,second compound 0.1 µM,> 10 µM
same,IC50,second compound 0.316 µM,> 10 µM
same,IC50,second compound 1 µM,> 10 µM
same,IC50,second compound 3.16 µM,> 10 µM
same,IC50,second compound 10 µM,> 10 µM
same,"viability, T/C",[1],107%
same,"viability, T/C",[2],93.3%
same,"viability, T/C",[3],93.9%
same,"viability, T/C",[4],78.7%
same,"viability, T/C",[5],82.3%
same,"viability, T/C",[6],72.7%
same,"viability, T/C",[7],99.6%
same,"viability, T/C",[8],90.7%
same,"viability, T/C",[9],85.4%
same,"viability, T/C",[10],93%
same,"viability, T/C",[11],70.7%
same,"viability, T/C",[12],63.7%
same,"viability, T/C",[13],108%
same,"viability, T/C",[14],92.8%
same,"viability, T/C",[15],89.1%
same,"viability, T/C",[16],88.5%
same,"viability, T/C",[17],85.2%
same,"viability, T/C",[18],72.9%
same,"viability, T/C",[19],108%
same,"viability, T/C",[20],95.9%
same,"viability, T/C",[21],94.6%
same,"viability, T/C",[22],90.1%
same,"viability, T/C",[23],90.2%
same,"viability, T/C",[24],85.3%
same,"viability, T/C",[25],105%
same,"viability, T/C",[26],98%
same,"viability, T/C",[27],96.8%
same,"viability, T/C",[28],91.2%
same,"viability, T/C",[29],91.3%
same,"viability, T/C",[30],82.3%
same,"viability, T/C",[31],104%
same,"viability, T/C",[32],98.9%
same,"viability, T/C",[33],99.2%
same,"viability, T/C",[34],92.4%
same,"viability, T/C",[35],88%
same,"viability, T/C",[36],88.7%
COc1cc2cc(C(=O)CCC(=O)O)sc2cc1OC + Cc1cccc(N(C)C(=O)C2C(O)CCN2c2nc(C)cc(C(F)(F)F)c2C#N)c1,IC50,second compound 0.0316 µM,> 10 µM
same,IC50,second compound 0.1 µM,> 10 µM
same,IC50,second compound 0.316 µM,> 10 µM
same,IC50,second compound 1 µM,> 10 µM
same,IC50,second compound 3.16 µM,> 10 µM
same,IC50,second compound 10 µM,> 10 µM
same,"viability, T/C",[1],114%
same,"viability, T/C",[2],97.4%
same,"viability, T/C",[3],94.9%
same,"viability, T/C",[4],95.8%
same,"viability, T/C",[5],98.7%
same,"viability, T/C",[6],92.5%
same,"viability, T/C",[7],107%
same,"viability, T/C",[8],99.6%
same,"viability, T/C",[9],96.1%
same,"viability, T/C",[10],110%
same,"viability, T/C",[11],103%
same,"viability, T/C",[12],107%
same,"viability, T/C",[13],102%
same,"viability, T/C",[14],100%
same,"viability, T/C",[15],93.8%
same,"viability, T/C",[16],101%
same,"viability, T/C",[17],104%
same,"viability, T/C",[18],110%
same,"viability, T/C",[19],101%
same,"viability, T/C",[20],106%
same,"viability, T/C",[21],97.7%
same,"viability, T/C",[22],108%
same,"viability, T/C",[23],108%
same,"viability, T/C",[24],105%
same,"viability, T/C",[25],108%
same,"viability, T/C",[26],104%
same,"viability, T/C",[27],96.3%
same,"viability, T/C",[28],96.6%
same,"viability, T/C",[29],101%
same,"viability, T/C",[30],105%
same,"viability, T/C",[31],103%
same,"viability, T/C",[32],102%
same,"viability, T/C",[33],103%
same,"viability, T/C",[34],102%
same,"viability, T/C",[35],111%
same,"viability, T/C",[36],97.4%
O=C(Nc1ccc(O)c(NS(=O)(=O)c2ccc(F)cc2)c1)c1ccc(-c2ccccc2)cc1 + Cc1cccc(N(C)C(=O)C2C(O)CCN2c2nc(C)cc(C(F)(F)F)c2C#N)c1,IC50,second compound 0.0316 µM,> 10 µM
same,IC50,second compound 0.1 µM,> 10 µM
same,IC50,second compound 0.316 µM,> 10 µM
same,IC50,second compound 1 µM,> 10 µM
same,IC50,second compound 3.16 µM,> 10 µM
same,IC50,second compound 10 µM,> 10 µM
same,"viability, T/C",[1],94.8%
same,"viability, T/C",[2],97.5%
same,"viability, T/C",[3],98.2%
same,"viability, T/C",[4],96.3%
same,"viability, T/C",[5],106%
same,"viability, T/C",[6],109%
same,"viability, T/C",[7],101%
same,"viability, T/C",[8],98.5%
same,"viability, T/C",[9],99.7%
same,"viability, T/C",[10],90.4%
same,"viability, T/C",[11],101%
same,"viability, T/C",[12],94.8%
same,"viability, T/C",[13],96.9%
same,"viability, T/C",[14],96.4%
same,"viability, T/C",[15],93.5%
same,"viability, T/C",[16],101%
same,"viability, T/C",[17],103%
same,"viability, T/C",[18],101%
same,"viability, T/C",[19],113%
same,"viability, T/C",[20],106%
same,"viability, T/C",[21],101%
same,"viability, T/C",[22],102%
same,"viability, T/C",[23],98.9%
same,"viability, T/C",[24],103%
same,"viability, T/C",[25],103%
same,"viability, T/C",[26],104%
same,"viability, T/C",[27],106%
same,"viability, T/C",[28],100%
same,"viability, T/C",[29],108%
same,"viability, T/C",[30],105%
same,"viability, T/C",[31],114%
same,"viability, T/C",[32],100%
same,"viability, T/C",[33],106%
same,"viability, T/C",[34],97.9%
same,"viability, T/C",[35],99.8%
same,"viability, T/C",[36],98.5%
